# Measurements published in patent US20250250303A1 (THE TRUSTEES OF COLUMBIA UNIVERSITY IN THE CITY OF NEW YORK, priority 2022, published 2025).
# “Also recorded” adds a separate entry of the source. Bridge positions count the residues as written; N and C are the ends. Peptide text beside a SMILES is read from it.
# Columns and labels:
# T47D = assay: Cancer cell proliferation, T47D; assay type: cell-based
# [1] = system: 3T3-L1 and IR-transfected L6 myoblasts; conditions: cited from earlier work
# IR K484E/L552A = biological target: T1, IR K484E/L552A (Homo sapiens, UniProt P06213, K511E/L579A); assay: IR activation assay in 293 FT cells, IR K484E/L552A double mutant; assay type: cell-based; conditions: 10 nM for 10 min
# T1 construct: expressed in transfected cells; host or cells: 293 FT cells
# [2] = Zucker diabetic fatty rats; cited from earlier work
# [3] = system: upstream MAPK pathway proteins (e.g., SOS1, SHP2); assay: Quantitative phosphoproteomics of skeletal muscle; assay type: in vivo, mice; conditions: compared to insulin
# Description: FIG. 6A illustrates sequences of S597 and analogs. […] Liver (3 min) and skeletal muscle (5 min) were collected after injection. Quantification of data shown in Mean±SD. […] Two-tailed student t-test; *p<0.05; **p<0.01; ***p<0.001; ****p<0.0001 (PBS set as the control); ††p<0.01 and ††††p<0.0001. […] Compared to insulin-treated samples, blue and red sites indicate downregulation and upregulation of phosphorylation by S597, respectively.
# MCF7 = assay: IR signaling in cancer cells, MCF7; assay type: cell-based; conditions: 10, 100 or 300 nM for 10 minutes
# IR N15K = biological target: T2, IR N15K (Homo sapiens, UniProt P06213, N42K); assay: IR activation assay in 293 FT cells, IR N15K mutant; assay type: cell-based; conditions: 10 min
# T2 construct: expressed in transfected cells; host or cells: 293 FT cells
# IR F96A = biological target: T3, IR F96A (Homo sapiens, UniProt P06213, F123A); assay: IR activation assay in 293 FT cells, IR F96A mutant; assay type: cell-based; conditions: 10 nM for 10 min
# T3 construct: expressed in transfected cells; host or cells: 293 FT cells
# Insulin tolerance test = assay type: in vivo, mice; conditions: intraperitoneal
# Description: Insulin tolerance tests were performed as described previously with some modification. Briefly, 2-3 months old male mice were fasted for 2 hr. and their blood glucose levels (T=0) were measured with tail bleeding using a glucometer (AlphaTRAK). After then, mice were injected intraperitoneally with Humulin (6 nmol/kg body weight), S597 (9 nmol/kg), S597-S20D (9 nmol/kg), S597-W6A (9 nmol/kg), S597-F27A (9 nmol/kg), or S597-N20 (27 nmol/kg), and their blood glucose levels were measured at the indicated time points after injection.
# [4] = biological target: insulin-like growth factor 1 receptor (IGF1R) (Homo sapiens, UniProt P08069); conditions: previous studies; cited from earlier work
# IR D707A = IR D707A (Homo sapiens, UniProt P06213, D734A); assay: IR signaling in IR-D707A MEFs (tamoxifen-inducible IR knockout); assay type: cell-based, mouse; set-up: expressed in transfected cells; host or cells: mouse embryonic fibroblasts from IR F/F; CRE-ERT mice, retroviral pBabe-puro, tamoxifen-treated; conditions: wide range of concentrations
# Description: Fresh 0.25% trypsin-EDTA was added. […] The medium was changed the next day to remove debris and floating cells.
# [5] = Chronic treatment by osmotic minipump; assay type: in vivo, mice
# From the text: 2-month-old male mice were implanted with osmotic minipump releasing Humulin (0.2 U/day), S597 (0.3 U/day), or S597-S20D (0.3 U/day). […] Hepes, N=7; Humulin, N=8; S597, N=7; S597-S20D, N=4. […] Hepes, N=7; Humulin, N=8; S597, N=9; S597-S20D, N=4. Two-way ANOVA followed by Tukey's multiple comparisons test. […] Mean±SEM. Hepes, N=8; Humulin, N=7; S597, N=9; S597-S20D, N=5. […] Hepes, N=4; Humulin and S597 analogs, N=5. two-tailed Student's t-test. All graphs show Mean±SEM.
# To examine the long-term effects of S597 in vivo, C57BL/6J WT mice were implanted with osmotic minipumps releasing either HEPES, Humulin, or mimetics. […] Consistent with previous work, chronic treatment of Humulin increased body weight (FIGS. 11E, 11F).
# full-length IGF1R = assay: In vitro competition assay for full-length IGF1R; assay type: binding
# IR signaling = assay: Insulin signaling in vivo (liver, skeletal muscle, WAT lysates, western blot); set-up: species or system mice
# Description: 2-3 months old male mice were fasted overnight. […] Livers were removed at 3 min after injection. White adipose tissue and skeletal muscles were removed at 5 min and 7 min after injection, respectively. Tissues were mixed with the lysis buffer B supplemented with complete Protease Inhibitor Cocktail (Roche), PhosSTOP (Sigma), and 25 U/ml turbo nuclease (Accelagen), homogenized with FisherbrandTM Bead Mill homogenizer, and then incubated on ice for 1 hr. After centrifuge at 20,817 g at 4° C. for 30 min, the concentrations of cell lysate were measured using Micro BCA Protein Assay Kit (Thermo Scientific). The lysates were then analyzed by quantitative western blotting.
# IR = IR (Homo sapiens, UniProt P06213); conditions: cited from earlier work
# SREBP1 = assay: Immunofluorescence assay for SREBP1 translocation in primary hepatocytes; assay type: cell-based, mouse; conditions: 100 nM for 30 min
# Description: Primary hepatocytes were as described in the primary hepatocyte isolation section. […] Cells were fixed with 4% paraformaldehyde for 10 min. The fixed cells were incubated with PBS for 30 min and 3% BSA in PBS with 0.1% Triton X-100 (0.1% PBST) for 1 hr., and then treated with anti-SREBP1 antibodies (20B12, Millipore, Cat. #MABS1987, 1:200) in 3% BSA in 0.1% PBST at 4° C. overnight. After being washed, cells were incubated with secondary antibodies (Alexa Fluor 488 goat anti-rabbit, Invitrogen, Cat. #A11008, 1:200) for 1 hr. Cells were washed and mounted on microscope slides in ProLong Gold Antifade reagent with DAPI (Invitrogen). Images were acquired as a series of 0.2 μm stacks with a Leica Thunder Imager (Leica Microsystems Inc.). Raw images were deconvolved using LAS X Software (Leica Microsystems Inc.). The nuclear edges and the nuclear SREBP1 signal were defined with Image J. Identical exposure times and magnifications were used for all comparative analyses.
# [6] = WAT, compared to vehicle treated conditions
# [7] = liver, injection via inferior vena cava
# [8] = skeletal muscle, injection via inferior vena cava
# Sequence of IR D707A (P06213 28-1370 isoform P06213-2 D734A limits assumed): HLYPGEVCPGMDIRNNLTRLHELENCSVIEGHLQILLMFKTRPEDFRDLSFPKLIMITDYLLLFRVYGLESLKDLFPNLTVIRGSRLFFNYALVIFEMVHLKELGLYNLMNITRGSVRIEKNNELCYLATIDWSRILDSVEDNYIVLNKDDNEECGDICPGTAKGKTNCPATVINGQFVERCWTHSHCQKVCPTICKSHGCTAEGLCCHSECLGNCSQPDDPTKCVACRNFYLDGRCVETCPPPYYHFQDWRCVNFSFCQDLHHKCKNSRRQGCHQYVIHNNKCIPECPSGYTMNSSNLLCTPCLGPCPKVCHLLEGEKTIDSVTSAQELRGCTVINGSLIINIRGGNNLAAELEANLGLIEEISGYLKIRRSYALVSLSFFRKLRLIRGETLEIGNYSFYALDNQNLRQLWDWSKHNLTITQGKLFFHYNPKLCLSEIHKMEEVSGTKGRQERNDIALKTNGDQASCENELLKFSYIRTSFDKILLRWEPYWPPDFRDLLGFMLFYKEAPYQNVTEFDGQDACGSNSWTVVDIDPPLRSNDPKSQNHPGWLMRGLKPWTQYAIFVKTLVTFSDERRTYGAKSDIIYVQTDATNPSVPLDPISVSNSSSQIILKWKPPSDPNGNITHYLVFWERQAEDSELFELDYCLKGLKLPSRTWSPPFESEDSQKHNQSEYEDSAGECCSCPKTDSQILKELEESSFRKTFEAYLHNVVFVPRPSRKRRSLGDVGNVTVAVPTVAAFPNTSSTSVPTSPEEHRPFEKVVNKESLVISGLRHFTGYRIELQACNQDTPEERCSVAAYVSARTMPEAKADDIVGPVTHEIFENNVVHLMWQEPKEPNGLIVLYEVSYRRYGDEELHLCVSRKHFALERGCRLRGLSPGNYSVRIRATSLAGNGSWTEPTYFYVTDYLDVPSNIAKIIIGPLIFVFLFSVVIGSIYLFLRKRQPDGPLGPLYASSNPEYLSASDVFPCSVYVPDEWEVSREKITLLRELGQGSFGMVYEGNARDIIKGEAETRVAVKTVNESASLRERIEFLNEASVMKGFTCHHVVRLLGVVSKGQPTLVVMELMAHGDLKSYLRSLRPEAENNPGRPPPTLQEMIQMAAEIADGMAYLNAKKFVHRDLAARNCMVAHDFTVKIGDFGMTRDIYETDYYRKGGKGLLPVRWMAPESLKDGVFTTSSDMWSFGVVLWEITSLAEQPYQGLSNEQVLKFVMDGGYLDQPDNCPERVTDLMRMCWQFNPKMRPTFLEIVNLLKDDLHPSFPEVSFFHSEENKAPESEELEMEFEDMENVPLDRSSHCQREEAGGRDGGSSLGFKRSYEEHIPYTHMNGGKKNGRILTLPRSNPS
# Sequence of IR D707A (P06213 763-1382 partner limits assumed): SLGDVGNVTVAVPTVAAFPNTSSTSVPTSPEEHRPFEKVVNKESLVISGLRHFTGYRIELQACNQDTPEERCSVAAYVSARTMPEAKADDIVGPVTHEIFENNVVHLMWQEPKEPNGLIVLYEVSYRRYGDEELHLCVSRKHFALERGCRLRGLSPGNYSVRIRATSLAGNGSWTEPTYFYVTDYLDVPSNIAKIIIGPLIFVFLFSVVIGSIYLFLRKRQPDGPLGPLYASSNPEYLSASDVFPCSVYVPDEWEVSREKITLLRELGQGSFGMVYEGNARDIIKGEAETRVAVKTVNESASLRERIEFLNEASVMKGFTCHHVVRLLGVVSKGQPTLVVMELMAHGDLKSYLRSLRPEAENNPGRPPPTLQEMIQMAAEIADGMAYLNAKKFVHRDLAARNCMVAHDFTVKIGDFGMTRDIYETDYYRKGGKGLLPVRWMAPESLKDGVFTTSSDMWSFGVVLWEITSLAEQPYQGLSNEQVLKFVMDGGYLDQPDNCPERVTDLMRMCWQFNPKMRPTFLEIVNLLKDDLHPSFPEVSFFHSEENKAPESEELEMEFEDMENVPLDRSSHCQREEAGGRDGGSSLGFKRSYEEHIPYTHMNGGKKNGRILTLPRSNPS
# Sequence of IR (P06213 28-758 limits assumed): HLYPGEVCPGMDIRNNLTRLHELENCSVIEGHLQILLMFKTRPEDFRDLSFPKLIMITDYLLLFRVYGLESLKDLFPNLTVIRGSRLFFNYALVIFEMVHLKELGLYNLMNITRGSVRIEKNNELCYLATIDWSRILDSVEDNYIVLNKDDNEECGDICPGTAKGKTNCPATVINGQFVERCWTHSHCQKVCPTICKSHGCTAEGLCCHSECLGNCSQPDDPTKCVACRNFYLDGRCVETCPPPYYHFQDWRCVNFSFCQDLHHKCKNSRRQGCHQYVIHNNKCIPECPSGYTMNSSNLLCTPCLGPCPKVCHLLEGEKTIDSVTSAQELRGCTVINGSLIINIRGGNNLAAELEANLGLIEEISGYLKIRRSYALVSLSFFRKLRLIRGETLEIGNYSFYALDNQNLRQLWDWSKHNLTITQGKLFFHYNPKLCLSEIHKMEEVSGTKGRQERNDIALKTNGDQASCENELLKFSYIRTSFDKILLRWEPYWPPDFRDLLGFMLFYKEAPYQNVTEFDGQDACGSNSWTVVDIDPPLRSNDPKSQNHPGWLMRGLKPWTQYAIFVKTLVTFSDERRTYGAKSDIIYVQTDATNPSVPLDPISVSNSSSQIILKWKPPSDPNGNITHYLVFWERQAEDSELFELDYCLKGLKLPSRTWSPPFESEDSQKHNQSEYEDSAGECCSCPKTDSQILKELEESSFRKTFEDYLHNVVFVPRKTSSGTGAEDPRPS
# Sequence of IR (P06213 763-1382 partner limits assumed): as the sequence (P06213 763-1382 partner limits assumed) above
# T1 sequence (P06213 28-1370 isoform P06213-2 K511E/L579A limits assumed): as the sequence (P06213 28-1370 isoform P06213-2 D734A limits assumed) above, with K484E, L552A, A707D counted along it
# T1 sequence (P06213 763-1382 partner limits assumed): as the sequence (P06213 763-1382 partner limits assumed) above
# T3 sequence (P06213 28-1370 isoform P06213-2 F123A limits assumed): as the sequence (P06213 28-1370 isoform P06213-2 D734A limits assumed) above, with F96A, A707D counted along it
# T3 sequence (P06213 763-1382 partner limits assumed): as the sequence (P06213 763-1382 partner limits assumed) above
# Sequence of insulin-like growth factor 1 receptor (IGF1R) (P08069 31-736 limits assumed, species assumed): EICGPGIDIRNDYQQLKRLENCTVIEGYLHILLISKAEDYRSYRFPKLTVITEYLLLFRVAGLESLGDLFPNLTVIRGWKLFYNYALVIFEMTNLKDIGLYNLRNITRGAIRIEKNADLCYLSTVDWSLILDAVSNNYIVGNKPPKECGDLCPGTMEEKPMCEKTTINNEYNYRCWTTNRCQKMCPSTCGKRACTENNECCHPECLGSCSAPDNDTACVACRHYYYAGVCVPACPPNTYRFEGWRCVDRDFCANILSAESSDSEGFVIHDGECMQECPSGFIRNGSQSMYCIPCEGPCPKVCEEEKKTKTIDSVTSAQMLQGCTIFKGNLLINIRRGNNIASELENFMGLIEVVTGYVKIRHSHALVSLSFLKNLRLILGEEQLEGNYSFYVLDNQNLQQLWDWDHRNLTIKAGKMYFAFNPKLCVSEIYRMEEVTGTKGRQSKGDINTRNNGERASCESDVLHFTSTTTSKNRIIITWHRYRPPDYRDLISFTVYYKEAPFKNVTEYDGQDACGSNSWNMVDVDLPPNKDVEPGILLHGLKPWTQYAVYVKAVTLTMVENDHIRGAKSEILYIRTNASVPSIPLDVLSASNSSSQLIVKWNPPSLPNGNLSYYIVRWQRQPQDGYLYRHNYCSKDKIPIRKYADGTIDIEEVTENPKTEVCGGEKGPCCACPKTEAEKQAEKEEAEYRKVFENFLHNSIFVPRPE
# T2 sequence (P06213 28-1370 isoform P06213-2 N42K limits assumed): as the sequence (P06213 28-1370 isoform P06213-2 D734A limits assumed) above, with N15K, A707D counted along it
# T2 sequence (P06213 763-1382 partner limits assumed): as the sequence (P06213 763-1382 partner limits assumed) above
smiles,measurement,setting,value
CC[C@H](C)[C@H](NC(=O)[C@H](CCC(N)=O)NC(=O)[C@H](C)NC(=O)[C@H](Cc1c[nH]c2ccccc12)NC(=O)[C@H](CCC(=O)O)NC(=O)[C@H](CCC(=O)O)NC(=O)[C@H](CCC(=O)O)NC(=O)[C@H](CC(C)C)NC(=O)[C@H](CO)NC(C)=O)C(=O)N[C@@H](CCC(=O)O)C(=O)N[C@H]1CSSC[C@@H](C(=O)N2CCC[C@H]2C(=O)N[C@@H](CO)C(=O)N[C@@H](CCC(=O)O)C(=O)N[C@@H](CO)C(=O)N[C@@H](Cc2ccccc2)C(=O)N[C@@H](Cc2ccc(O)cc2)C(=O)N[C@@H](CC(=O)O)C(=O)N[C@@H](Cc2c[nH]c3ccccc23)C(=O)N[C@@H](Cc2ccccc2)C(=O)N[C@@H](CCC(=O)O)C(=O)N[C@@H](CCCNC(=N)N)C(=O)N[C@@H](CCC(N)=O)C(=O)N[C@@H](CC(C)C)C(N)=O)NC(=O)CNC(=O)[C@H](CCCNC(=N)N)NC(=O)CNC(=O)[C@H](Cc2ccc(O)cc2)NC(=O)[C@H](C(C)C)NC(=O)[C@H](CCC(=O)O)NC1=O [S597] (Ac-SLEEEWAQIECEVYGRGCPSESFYDWFERQL-NH2; disulfide 11-18),cell proliferation,T47D,did not promote
same,MAPK pathway,[1],largely inactive
same,PI3K-AKT pathway,[1],selectively activates
same,IR activation (pY IR),IR K484E/L552A,could not be activated efficiently
same,blood glucose,[2],lowers
same,"phosphorylation levels of upstream MAPK pathway proteins (e.g., SOS1, SHP2)",[3],significantly reduced
same,IR signaling,MCF7,failed to activate
same,IR activation (pY IR),IR N15K,fully activated
same,IR activation (pY IR),IR F96A,great deficiency
same,blood glucose levels in ITT,"Insulin tolerance test; FIGS. 10A, 8F, 8G",lowered
same,blood glucose in insulin tolerance assays,"Insulin tolerance test; FIGS. 12B, 12C",lowered blood glucose in mice as effectively as insulin
same,activation of IGF1R,[4],does not activate
same,phosphorylation of AKT (pAKT),IR D707A,significantly increased
same,phosphorylation of ERK (pERK),IR D707A,significantly increased
same,phosphorylation of IR (pY IR),IR D707A,significantly increased
same,body weight gain,[5],gained less than control mice
same,weight gain and fat mass,"[5]; FIG. 11, preliminary data",reduces weight gain and fat mass relative to insulin
same,binding to IGF1R,full-length IGF1R,do not bind
same,pAKT level,IR signaling; [6],significantly increased
same,pERK level,IR signaling; [6],neither insulin nor S597 had a statistically significant effect
same,pY IR level,"IR signaling; WAT, injection via inferior vena cava","robust auto-phosphorylation of the IR, albeit with lower potency than insulin"
same,pERK level,IR signaling; [7],increased
same,pY IR level,IR signaling; [7],"robust auto-phosphorylation of the IR, albeit with lower potency than insulin"
same,pAKT level,IR signaling; [8],significantly increased
same,pERK level,IR signaling; [8],less potent; also recorded: not in the skeletal muscle
same,pY IR level,IR signaling; [8],significantly increased
same,affinity for the IR,IR,sub-micromolar
same,nuclear translocation of SREBP1,SREBP1,stimulated to the same level
